The source of these data is ChEMBL document CHEMBL6153133, “Discovery of Diphenyl Ether Derivatives as Novel BKCa Channel Activators: Structure-Activity Relationship, Cryo-EM Complex Structures, and In Vivo Animal Studies” (J Med Chem, 2025).

Activity calls are given as the source filed them. No cut-off for these calls is given here.

The subject of series [1] is Calcium-activated potassium channel subunit alpha-1 (Homo sapiens), Q12791 [UNDEFINED MUTATION]. Briefly: (§1) Activation of hyperactive human BKca channel G803D/N806K mutant transfected in human AD-293 cells incubated for 15 mins by Flexstation3 multimode microplate reader analysis. The series is classed as cell-based.
Series [2] has the same test system. Description: Activation of hyperactive human BKca channel G803D/N806K mutant transfected in human AD-293 cells assessed as maximum relative fluorescence value at 5 uM preincubated for 15 mins followed by Tl+ stimulus buffer addition and measured after 80 sec by Flexstation3 multimode microplate reader analysis relative to control. The series is classed as cell-based. The conditions noted are these: time 980.0 sec.

A short description of series [3]: Metabolic stability in human liver microsomes assessed as parent compound remaining at 1 uM preincubated for 5 mins followed by NADPH addition and measured after 30 mins by LC-MS/MS analysis. The note with it: read-out: Stability. The series is classed as ADME, Microsome. A general note: Liver microsomes are vesicles of endoplasmic reticulum, rich in cytochrome P450 enzymes.

Series [4] in a line: Metabolic stability in rat liver microsomes assessed as parent compound remaining at 1 uM preincubated for 5 mins followed by NADPH addition and measured after 30 mins by LC-MS/MS analysis. The series is classed as ADME, Microsome. The conditions noted are these: read-out: Stability.
Series [5] has as its system Calcium-activated potassium channel subunit alpha-1 (Homo sapiens), Q12791 [UNDEFINED MUTATION]. Description: Activation of hyperactive human BKca channel G803D/N806K mutant transfected in human AD-293 cells assessed as maximum relative fluorescence value at 1 uM preincubated for 15 mins followed by Tl+ stimulus buffer addition and measured after 80 sec by Flexstation3 multimode microplate reader analysis relative to control. The conditions noted are these: time 980.0 sec. The series is classed as cell-based.

In series [6] the target is Calcium-activated potassium channel subunit alpha-1 (Homo sapiens, UniProt Q12791, G803D/N806K). The description is as §1. The series is classed as cell-based.
Series [7] deals with T1, Calcium-activated potassium channel subunit alpha-1 (Homo sapiens, UniProt Q12791). Briefly: Activation of BKca channel (unknown origin) by cell-based fluorescence assay.
Series [8] concerns the target T1, Calcium-activated potassium channel subunit alpha-1. Description: Activation of BKca channel (unknown origin) by cell based method.
Series [9] can be described thus: Metabolic stability in rat liver microsomes assessed as parent compound remaining at 1 uM preincubated for 15 mins followed by UDPGA addition and measured after 60 mins by LC-MS/MS analysis. The series is classed as ADME, Microsome. The conditions noted are these: time 75 min, read-out: Stability.
Series [10] can be described thus: Permeability of compound at pH 7.4 measured after 4 hrs by GIT-PAMPA assay. The series is classed as ADME. The conditions noted are these: read-out: permeability. Background: PAMPA measures passive passage across an artificial lipid membrane.
A short description of series [11]: Metabolic stability in human liver microsomes assessed as parent compound remaining at 1 uM preincubated for 15 mins followed by UDPGA addition and measured after 60 mins by LC-MS/MS analysis. The series is classed as ADME, Microsome. The conditions noted are these: time 75 min, read-out: Stability.
Series [12] is described as follows: Activation of rat BKca channel extracted from Xenopus laevis Oocytes by patch-clamp electrophysiology recordings. The series is classed as cell-based. The conditions noted are these: Oocyte.

Sequence of Calcium-activated potassium channel subunit alpha-1 (Homo sapiens), Q12791 [UNDEFINED MUTATION] (Q12791 whole entry, looked up, stated change not applied): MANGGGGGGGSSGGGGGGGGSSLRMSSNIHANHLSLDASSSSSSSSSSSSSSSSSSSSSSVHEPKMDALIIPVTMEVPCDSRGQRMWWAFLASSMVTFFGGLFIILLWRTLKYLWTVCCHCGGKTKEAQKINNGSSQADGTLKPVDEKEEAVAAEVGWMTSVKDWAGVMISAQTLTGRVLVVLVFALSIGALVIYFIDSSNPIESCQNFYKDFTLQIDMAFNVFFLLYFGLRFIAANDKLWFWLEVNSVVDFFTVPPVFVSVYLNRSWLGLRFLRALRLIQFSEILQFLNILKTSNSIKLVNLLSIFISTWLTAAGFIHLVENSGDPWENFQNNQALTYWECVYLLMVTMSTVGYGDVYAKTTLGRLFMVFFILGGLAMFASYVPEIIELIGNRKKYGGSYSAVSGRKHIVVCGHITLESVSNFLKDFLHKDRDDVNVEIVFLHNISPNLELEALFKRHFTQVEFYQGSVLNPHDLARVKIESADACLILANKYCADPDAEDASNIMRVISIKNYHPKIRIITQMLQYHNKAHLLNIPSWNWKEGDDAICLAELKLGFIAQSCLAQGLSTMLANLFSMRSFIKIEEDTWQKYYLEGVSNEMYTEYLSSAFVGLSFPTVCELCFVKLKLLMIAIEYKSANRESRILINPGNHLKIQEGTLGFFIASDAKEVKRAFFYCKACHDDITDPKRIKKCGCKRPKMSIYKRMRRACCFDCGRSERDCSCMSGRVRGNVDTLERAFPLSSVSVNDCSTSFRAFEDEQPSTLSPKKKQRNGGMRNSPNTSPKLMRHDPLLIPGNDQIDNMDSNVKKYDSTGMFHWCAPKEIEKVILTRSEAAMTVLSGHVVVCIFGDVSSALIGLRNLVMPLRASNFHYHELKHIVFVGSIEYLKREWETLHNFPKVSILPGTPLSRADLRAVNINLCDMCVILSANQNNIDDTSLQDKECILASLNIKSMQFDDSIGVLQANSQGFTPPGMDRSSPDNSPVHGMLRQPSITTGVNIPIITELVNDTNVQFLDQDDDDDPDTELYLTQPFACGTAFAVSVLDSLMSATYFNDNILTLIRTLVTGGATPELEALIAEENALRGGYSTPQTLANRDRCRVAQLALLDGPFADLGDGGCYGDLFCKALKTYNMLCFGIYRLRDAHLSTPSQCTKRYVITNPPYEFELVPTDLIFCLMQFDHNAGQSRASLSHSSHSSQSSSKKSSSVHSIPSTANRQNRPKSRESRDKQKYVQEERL
Sequence of Calcium-activated potassium channel subunit alpha-1 (Homo sapiens, UniProt Q12791, G803D/N806K) (Q12791 whole entry, looked up, stated change not applied): as above
T1 sequence (Q12791 whole entry): as the sequence (Q12791 whole entry, looked up, stated change not applied) above

With `COc1cc(O)ccc1Oc1c(F)c(F)c(Cl)c(F)c1F`, the outcome in series [1] was inactive.
Regarding `N#Cc1cc(N)ccc1Oc1c(F)c(F)c(C(F)(F)F)c(F)c1F`, in series [2], the Activity was 8.1%.
Consider `Oc1ccc(Oc2c(F)cc(C(F)(F)F)cc2F)c(O)c1`, for which, in series [2] (filed as opener), the Activity came out at 66.9%.
As to `Oc1c(F)c(F)c(Cl)c(F)c1F`, the outcome in series [1] was inactive.
On to `Oc1ccc(Oc2cc(Cl)cc(Cl)c2)c(O)c1`, for which the Activity in series [2] (filed as opener) was found to be 61.5%.
`Oc1ccc(Oc2ccc(Cl)c(C(F)(F)F)c2)c(O)c1`: the Activity in [2] (filed as opener) was 74.7%.
Regarding `Oc1cccc(Oc2c(F)c(F)c(Cl)c(F)c2F)c1`, the Activity in series [2] was 5%.
Turning to `Nc1ccc(Oc2c(F)c(F)c(C(F)(F)F)c(F)c2F)c(F)c1`, the figures for the remaining at 0.5 h, 1 µM in series [3] and in series [4] were 14.8% and 12.7%, respectively. The figures for the Activity in series [2] (filed as opener) and in series [5] were 83% and 17.9%, respectively. Further, in series [6], the EC50 was 1370 nM.
Regarding `Oc1ccc(O)c(O)c1`, the outcome in [1] was inactive.
Consider `Fc1c(F)c(C(F)(F)F)c(F)c(F)c1Oc1ccc2[nH]cnc2c1`, for which the Activity in [2] was 1%.
For the compound `Cc1cccc(NC(=O)c2sc(=S)n3c2[nH]c(=O)c2cc(Br)ccc23)c1`, the half-maximal effective concentration (EC50) in series [7] and in [8] was 2700 nM throughout.
For `Nc1ccc(Oc2c(F)c(F)c(C(F)(F)F)c(F)c2F)c(OC(F)(F)F)c1`, the Activity in [2] came out at 33%.
Regarding `Nc1ccc(Oc2c(F)c(F)c(C(F)(F)F)c(F)c2F)cc1`, the figures for the remaining at 0.5 h, 1 µM in series [3] and in series [4] were 7.4% and 18.6%, respectively. The Activity is 86.8% in series [2] (filed as opener) and 18.1% in series [5].
As for `NCCCNc1ccc(Oc2c(F)c(F)c(C(F)(F)F)c(F)c2F)c(O)c1`, in [2], the Activity is 2.4%.
As to `Oc1ccccc1Oc1c(F)c(F)c(Cl)c(F)c1F`, the Activity in series [2] was -2.7%.
With `COc1cc(N)ccc1Oc1c(F)c(F)c(C(F)(F)F)c(F)c1F`, the figures for the remaining at 1 h, 1 µM in series [9] and in [11] were 88.8% and 30%, respectively. Further, in [10], the Papp at 4 h came to 73.6 ×10⁻⁶ cm/s. In addition, the remaining at 0.5 h, 1 µM in series [3] amounted to 87.1%; in series [4], 7.2%. Besides, in series [6], the EC50 amounted to 1210 nM.
Turning to `Fc1c(F)c(C(F)(F)F)c(F)c(F)c1Oc1ccc2[nH]ncc2c1`, the Activity in [2] is 1%.
Consider `Oc1ccc(Oc2c(F)c(F)c(Cl)c(F)c2F)cc1O`, for which the Activity in series [2] amounted to 4%.
As to `Oc1cc(NCCCCN2CCOCC2)ccc1Oc1c(F)c(F)c(C(F)(F)F)c(F)c1F` [listing 1 of 2 here], in series [2], the Activity was 9.3%.
As to `NCCNc1ccc(Oc2c(F)c(F)c(C(F)(F)F)c(F)c2F)c(O)c1`, the Activity in series [2] worked out at 3.3%.
The same measure, in the same setting: to `Nc1ccc(Oc2c(F)c(F)c(C(F)(F)F)c(F)c2F)c(CO)c1` belongs 37.9%; to `Oc1ccc(Oc2c(F)c(F)c(Cl)c(F)c2F)cc1`, 6.1%.
Still for that read-out and setting: to `Nc1ccc(Oc2c(F)c(F)c(C(F)(F)F)c(F)c2F)c(N)c1` belongs 10.3%; to `Oc1ccc(Oc2ccc(F)c(C(F)(F)F)c2)c(O)c1`, 19.8%.
Same read-out and setting: to `Oc1cc(O)cc(Oc2c(F)c(F)c(Cl)c(F)c2F)c1` belongs 11.8%.
In the case of `Nc1ccc(Oc2c(F)c(F)c(C(F)(F)F)c(F)c2F)nc1`, in series [1], the result was inactive.
`Fc1c(F)c(C(F)(F)F)c(F)c(F)c1Oc1ccc2[nH]ccc2c1`: the Activity in series [2] came out at 1%.
Consider `Nc1ccc(Oc2c(F)c(F)c(C(F)(F)F)c(F)c2F)c(C(F)(F)F)c1`, for which, in series [2], the Activity stood at 38%.
Consider `CNc1ccc(Oc2c(F)c(F)c(C(F)(F)F)c(F)c2F)c(O)c1`, for which the remaining at 1 h, 1 µM in series [9] stood at 4.7%; in series [11], 1.6%. In addition, the figures for the remaining at 0.5 h, 1 µM in series [3] and in [4] were 76% and 4%, respectively. In addition, the Activity in series [2] (filed as opener) and in series [5] (filed as opener) was 91.7% throughout. Besides, the EC50 in series [6] came out at 420 nM.
In the case of `Oc1ccc(Oc2cc(C(F)(F)F)cc(C(F)(F)F)c2)c(O)c1`, the Activity in series [2] (filed as opener) stood at 99.3%; in [5], 23.7%.
With `Oc1ccc(Oc2ccc(Cl)cc2)c(O)c1`, the Activity in series [2] was found to be 1.2%.
On to `Nc1ccc(Oc2c(F)c(F)c(C(F)(F)F)c(F)c2F)c(Cl)c1`, for which the Activity in [2] (filed as opener) amounted to 75.2%; in [5] it was 5.3%.
Regarding `O=[N+]([O-])c1ccc(Oc2c(F)c(F)c(C(F)(F)F)c(F)c2F)c(O)c1`, the Activity in series [2] turned out to be 19.3%.
On to `Oc1ccc(Oc2c(F)c(F)c(C(F)(F)F)c(F)c2F)c(O)c1`, for which the Activity is 102% in series [2] (filed as opener) and 81.3% in [5] (filed as opener). Further, the half-maximal effective concentration (EC50) in [6] was 680 nM.
In the case of `COc1ccc(Oc2c(F)c(F)c(Cl)c(F)c2F)c(O)c1`, the outcome in series [1] was inactive.
As for `Oc1cc(NCCCCCN2CCOCC2)ccc1Oc1c(F)c(F)c(C(F)(F)F)c(F)c1F`, the Papp at 4 h in series [10] came to 56.6 ×10⁻⁶ cm/s. In addition, the EC50 in series [12] worked out at 970 nM; in series [6], 2820 nM. Besides, the remaining at 0.5 h, 1 µM amounted to 96.9% in series [3] and 30.7% in series [4].
As to `NCc1ccc(Oc2c(F)c(F)c(C(F)(F)F)c(F)c2F)c(O)c1`, the result in [1] was inactive.
`O=[N+]([O-])c1cc(O)ccc1Oc1c(F)c(F)c(C(F)(F)F)c(F)c1F`: the Activity in series [2] came out at 0.1%.
On to `NCCCCNc1ccc(Oc2c(F)c(F)c(C(F)(F)F)c(F)c2F)c(O)c1`, for which the Activity in series [2] is 18%.
The same measure, in the same setting: to `Oc1ccc(Oc2ccc(Cl)c(F)c2)c(O)c1` belongs 8.1%.
In the case of `Oc1cc(NCCCCN2CCOCC2)ccc1Oc1c(F)c(F)c(C(F)(F)F)c(F)c1F` [listing 2 of 2 here], the remaining at 0.5 h, 1 µM in series [3] amounted to 91.2%; in series [4], 62.5%. In addition, in series [6], the half-maximal effective concentration (EC50) amounted to 9220 nM.
For the compound `Nc1ccc(Oc2c(F)c(F)c(C(F)(F)F)c(F)c2F)cn1`, the outcome in [1] was inactive.
Still for that read-out and setting: to `COc1ccc(Oc2c(F)c(F)c(Cl)c(F)c2F)c(OC)c1` belongs “inactive”.
In the case of `Nc1cc(O)ccc1Oc1c(F)c(F)c(C(F)(F)F)c(F)c1F`, the Activity in series [2] worked out at 4.7%.
The same measure, in the same setting: to `Oc1ccc(Oc2cccc(C(F)(F)F)c2)c(O)c1` belongs 5.5%.
As to `NC(=O)c1ccc(Oc2c(F)c(F)c(C(F)(F)F)c(F)c2F)cc1`, the outcome in series [1] was inactive.
`CCNc1ccc(Oc2c(F)c(F)c(C(F)(F)F)c(F)c2F)c(O)c1`: in [2] (filed as opener), the Activity turned out to be 65.7%.
Consider `Oc1ccc(Oc2ccc(Cl)c(Cl)c2)c(O)c1`, for which, in [2], the Activity came to 18.6%.
Take `NCCCCCNc1ccc(Oc2c(F)c(F)c(C(F)(F)F)c(F)c2F)c(O)c1`: in series [2] (filed as opener), the Activity worked out at 53.4%.
Consider `CN(C)c1ccc(Oc2c(F)c(F)c(C(F)(F)F)c(F)c2F)c(O)c1`, for which the Activity in series [2] was 10.2%.
With `CCCNc1ccc(Oc2c(F)c(F)c(C(F)(F)F)c(F)c2F)c(O)c1`, the Activity in series [2] worked out at 28.1%.

As a reminder, the EC50 is the concentration needed to bring the measured effect to its halfway point.
